According to patent publication US20080194406A1, “METHOD FOR TREATING AGRICULTURAL CROPS USING MATERIALS ASSOCIATED WITH TUBULAR CARRIERS” (NaturalNano, Inc., priority 2005, published 2008):

Assay: release profiles of drugs from halloysite tubule compositions, relative to total release amounts (FIGS. 4 and 5)
Format: physicochemical
Details: release from mineral-derived tubule composition relative to total release amount; FIG. 4 (Tetracycline), FIG. 5 (Khellin)
Excerpt: FIGS. 4 and 5, respectively illustrate, relative to total release amounts, the release profiles for two drugs (Tetracycline and Khellin), wherein prolonged application periods are desired.

- release profile extends for: several days
SMILES: COc1c2occc2c(OC)c2c(=O)cc(C)oc12 [Khellin]
